In experiment [1] the target is T1, nitrogenase MoFe-protein (Av1) (Azotobacter vinelandii, UniProt P07328).
T1 construct: gene nifD; purified Av1, (αβ)2 tetramer, with Av2; with MoFe-protein β subunit (NifK); Fe-protein (Av2)
Nature of the experiment: inhibition of acetylene reduction, Dixon plot (gas chromatography); Se incorporation seen by crystallography. The class given is biochemical. An excerpt: inhibition of acetylene reduction, Dixon plot (gas chromatography); Se incorporation seen by crystallography on nitrogenase MoFe-protein (Av1) | SeCN^- is a potent, yet reversible inhibitor of acetylene reduction

For experiment [2], the target named is T1, nitrogenase MoFe-protein (Av1). Nature of the experiment: inhibition of acetylene reduction, Dixon plot (gas chromatography). Type of experiment: biochemical.

By Ki is commonly meant the equilibrium dissociation constant of an inhibitor or competing ligand from its target. Lower therefore signals tighter binding. Compound `N#C[SeH]` [selenocyanate] showed an inhibition constant Ki in experiment [1] of 0.41 ± 0.03 mM.
`N#CS` [thiocyanate]: the Ki in experiment [2] is 12.7 ± 1.2 mM.

For the origin of these results see publication PMC4755756, “Catalysis-dependent selenium incorporation and migration in the nitrogenase active site iron-molybdenum cofactor” (eLife, 2015).
